{"source": "paper PMC5384001", "about": "(Scientific Reports, 2017)", "key": {"GluD2-Lc(A686S)": {"target": "T1, GluD2-Lc(A686S) (Rattus norvegicus, UniProt Q63226, A654T/A686S)", "T1 construct": "the function of full-length receptors as well, we introduced them into the GluD2 lurcher mutant (GluD2-Lc); expressed in transfected cells; host or cells: Xenopus laevis oocytes injected with cRNA", "T1 sequence (Q63226 24-1007 A654T/A686S)": "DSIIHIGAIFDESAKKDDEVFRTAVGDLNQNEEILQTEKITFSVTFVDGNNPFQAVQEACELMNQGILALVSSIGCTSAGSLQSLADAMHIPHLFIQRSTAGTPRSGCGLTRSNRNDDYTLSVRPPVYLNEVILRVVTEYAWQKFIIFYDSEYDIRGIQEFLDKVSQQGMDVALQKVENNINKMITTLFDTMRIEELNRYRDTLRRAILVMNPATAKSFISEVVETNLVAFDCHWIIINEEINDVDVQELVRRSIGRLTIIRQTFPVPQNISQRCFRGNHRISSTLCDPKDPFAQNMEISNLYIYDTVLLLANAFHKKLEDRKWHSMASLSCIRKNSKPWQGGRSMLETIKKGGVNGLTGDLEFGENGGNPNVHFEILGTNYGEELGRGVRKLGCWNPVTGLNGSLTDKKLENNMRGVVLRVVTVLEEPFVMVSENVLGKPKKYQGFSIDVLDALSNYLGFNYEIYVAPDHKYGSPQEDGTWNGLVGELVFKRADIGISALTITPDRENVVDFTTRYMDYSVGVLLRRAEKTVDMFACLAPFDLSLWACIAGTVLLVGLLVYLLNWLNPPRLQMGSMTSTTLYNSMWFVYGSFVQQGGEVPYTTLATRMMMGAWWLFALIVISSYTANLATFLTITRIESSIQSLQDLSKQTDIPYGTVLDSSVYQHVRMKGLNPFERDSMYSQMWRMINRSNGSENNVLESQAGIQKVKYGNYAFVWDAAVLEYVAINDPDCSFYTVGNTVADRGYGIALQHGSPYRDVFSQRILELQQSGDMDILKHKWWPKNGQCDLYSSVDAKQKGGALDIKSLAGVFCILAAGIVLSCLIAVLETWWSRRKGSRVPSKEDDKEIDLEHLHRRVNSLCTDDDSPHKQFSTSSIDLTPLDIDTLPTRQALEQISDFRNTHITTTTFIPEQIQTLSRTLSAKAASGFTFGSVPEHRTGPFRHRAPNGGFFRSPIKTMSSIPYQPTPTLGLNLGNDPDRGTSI", "assay": "Two-electrode voltage clamp in Xenopus oocytes, inhibition of spontaneous currents", "assay_type": "cell-based", "settings": "fraction of spontaneous current inhibited by saturating D-serine", "excerpt": "(§1) All cDNAs for expression in Xenopus oocytes were cloned into the vector pSGEM[30]. Point mutants of GluD2-Lc were constructed by overlap extension PCR with mutagenic oligonucleotide primers. The GluD2-Lc-(H)GluN1 chimera was constructed by transferring the S1- and S2-encoding sequences from GluD2-LBD-(H)GluN1 to GluD2-Lc via overlap extension PCR using tail primers. The S1 and S2 sequences were transferred separately, yielding GluD2-Lc-(HS1)GluN1 and GluD2-Lc-(HS2)GluN1 constructs. GluD2-Lc-(H)GluN1 was then produced from these by another overlap extension PCR. Complementary RNA (cRNA) for injection into oocytes was synthesised from 1 μg of linearised template DNA with the mMESSAGE mMACHINE in vitro transcription kit (Ambion, Austin, TX, USA).\n(§2) Oocytes were obtained by surgically removing parts of the ovaries from Xenopus laevis (Nasco, Fort Atkinson, WI, USA) anaesthetised with 1.5 g/L 3-aminobenzoic acid ethylester (Sigma, Taufkirchen, Germany). […] Oocytes were injected with 11 ng cRNA (10 ng of each cRNA for co-expression of GluN1 and GluN2A) using a nanoliter injector (WPI, Sarasota, FL, USA). Four days after cRNA injection, current responses were recorded under voltage clamp at –70 mV with a Turbo Tec-10CD amplifier (npi electronic, Tamm, Germany) controlled by Patchmaster software (HEKA, Lambrecht, Germany). Currents were filtered with a 20 Hz low-pass filter and then digitised with a sampling rate of 50 Hz. Recording electrodes were pulled from borosilicate glass (Hilgenberg, Malsfeld, Germany) with an L/M-3P-A vertical pipette puller (List-Medical), filled with 3 M KCl, and had resistances of 0.5–5 MΩ (voltage electrode) or 0.5–1.5 MΩ (current electrode). Recordings were performed in a 50 μL chamber under constant superfusion with extracellular solution at a flow rate of 3–5 mL/min. […] Finally, Ba-NFR and then NMDGR were applied again to check for reversibility."}, "GluD2-Lc(Y496F)": {"target": "T2, GluD2-Lc(Y496F) (Rattus norvegicus, UniProt Q63226, A654T/Y496F)", "T2 construct": "the function of full-length receptors as well, we introduced them into the GluD2 lurcher mutant (GluD2-Lc); expressed in transfected cells; host or cells: Xenopus laevis oocytes injected with cRNA", "T2 sequence (Q63226 24-1007 Y496F/A654T)": "T1 sequence (Q63226 24-1007 A654T/A686S) with Y473F, S663A", "assay": "Two-electrode voltage clamp in Xenopus oocytes, inhibition of spontaneous currents", "assay_type": "cell-based", "settings": "fraction of spontaneous current inhibited by saturating D-serine", "excerpt": "as §1, §2"}}, "note": "Numbering of substitutions follows the chain as printed."}
{"compound": "N[C@H](CO)C(=O)O", "note": "[D-serine]", "values": [{"measurement": "D-serine efficacy Mean ± SEM", "setting": "GluD2-Lc(A686S)", "value": "43.9 ± 0.7", "unit": "%"}, {"measurement": "D-serine efficacy Mean ± SEM", "setting": "GluD2-Lc(Y496F)", "value": "43.5 ± 2.0", "unit": "%"}]}
